According to paper PMC8956739, “A synthetic lipopeptide targeting top-priority multidrug-resistant Gram-negative pathogens” (Nature Communications, 2022):
Where “and” joins values, the source holds several entries; their conditions need not be identical. Identical values can stand only once. Residues, ends and D or L forms follow the SMILES beside them.

What was measured:
[1] = tested on: Swiss mice, kidney; assay: Nephrotoxicity in mice (kidney histopathology); type: in vivo, mouse
How it was run: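 Female Swiss mice (7-week-old, 22–28 g) received lipopeptides in saline either s.c. at 12 mg/kg ×6 every 2 h (total 72 mg/kg, n = 3) or i.p. at 20 or 25 mg/kg ×6 every 2 h (total 120 mg/kg, n = 6; 150 mg/kg, n = 3). Right kidney collected 20 h after last dose, fixed in 10% buffered formalin (pH 7.4), histology scored blinded.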

[2] = tested on: A. baumannii AB5075; assay: Transcriptomic analysis (RNA-Seq) of bacteria; type: cell-based, Acinetobacter baumannii; conditions: for logFC (Differential gene expression for all genes), Geneid ABUW_RS00005 / logFC (Differential gene expression for all genes), Geneid ABUW_RS00020 / logFC (Fold change), gene ABUW_RS00010 / logFC (Fold change), gene ABUW_RS00030 / logFC (Fold change), gene ABUW_RS00035 / logFC (Fold change), gene recF (ABUW_RS00015) / 4h_1h logFC (Differential gene expression for all genes), Geneid ABUW_RS00005 / 4h_1h logFC (Differential gene expression for all genes), Geneid ABUW_RS00010 / 4h_1h logFC (Differential gene expression for all genes), Geneid ABUW_RS00015 / 4h_1h logFC (Differential gene expression for all genes), Geneid ABUW_RS00020: RNA-Seq A. baumannii AB5075; for log2FC, gene ABUW_RS01945 (acyl-CoA thioesterase II) / log2FC, gene ABUW_RS02545 (acyl-CoA thioesterase) / log2FC, gene ABUW_RS05045 (acyl-CoA thioesterase) / log2FC, gene ABUW_RS17575 (acyl-CoA thioesterase): pathway Fatty Acid and Lipid Degradation; for 4h_1h logFC (Differential gene expression for all genes), Geneid ABUW_RS00005 / 4h_1h logFC (Differential gene expression for all genes), Geneid ABUW_RS00010 / 4h_1h logFC (Differential gene expression for all genes), Geneid ABUW_RS00015 / 4h_1h logFC (Differential gene expression for all genes), Geneid ABUW_RS00020: 4h vs 1h
Experimental: Mid-log phase A. baumannii AB5075 (~10^8 CFU/mL) in CaMHB was treated with colistin (2 and 8 μg/mL), F287, F319 or F365 (equimolar concentration to colistin) for 1 and 4 h. Total RNA was extracted using TRIzol Reagent (Invitrogen, USA) and RNeasy Mini Kit (Qiagen, Germany). Quality check of RNA samples was conducted with NanoDrop (Thermo Fisher Scientific, USA) and Agilent 2100 Bioanalyzer (Agilent Technologies, USA) for sequencing (150 bp paired-end) at Genewiz (Shanghai, China). Raw reads were aligned to A. baumannii AB5075 genome (GCF_000963815, https://www.ncbi.nlm.nih.gov/assembly/GCF_000963815.1/) using subread-aligner (subread 2.0.1) and summarized by featureCounts (subread 2.0.1). Principal component analysis (PCA) was conducted with mixOmics 6.14.1 in R. Differentially expressed genes were determined using limma 3.46.0 with a combination of fold change ≥ 2 and false discovery rate (FDR, by Benjamini–Hochberg algorithm) adjusted P-value ≤ 0.05 (n = 3). Enrichment analysis of gene differential expression in AB5075 was conducted using BioCyc (A. baumannii AB5075, version 25.5). UpSetR 1.4.0, ComplexHeatmap 2.6.2 and circlize 0.4.13 were used for data visualization. Raw data were deposited in Short Reads Archive (SRA) database under accession numbers SRR15235669-SRR15235725.

[3] = tested on: P. aeruginosa ATCC 27853; assay: Neutropenic mouse bloodstream infection model; type: in vivo; conditions: single IV dose 4 mg/kg
How it was run: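 Female Swiss mice made neutropenic with cyclophosphamide (150 mg/kg day −4, 100 mg/kg day −1), infected IV with 50 µL of 4 × 10^8 CFU/mL. Lipopeptide 4 mg/kg (free base) IV at 2 h post-inoculation, n = 3. Efficacy = Δlog10 CFU/mL blood versus saline at 4 h post-dose.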

[4] = 150 mg/kg/d IP in 6 divided doses every 2 h

CC[C@@H]1NC(=O)[C@@H](CC(C)C)NC(=O)[C@H](CCN)NC(=O)[C@@H](NC(=O)[C@H](CN)NC(=O)[C@@H](NC(=O)[C@H](CCN)NC(=O)c2ccc(Cl)cc2Cl)[C@@H](C)O)CCNC(=O)[C@H]([C@@H](C)O)NC(=O)[C@H](CCN)NC(=O)[C@H](CCN)NC1=O [Lipopeptide F365] (HELM PEPTIDE1{[O=C(c1ccc(Cl)cc1Cl)[*:2]].[Dab].T.[NC[C@H](N[*:1])C(=O)[*:2]].[Dab].[Dab].[dL].[Abu].[Dab].[Dab].T}$PEPTIDE1,PEPTIDE1,5:R3-11:R2$$$V2.0)
Kidney histopathology (SQS Score) ([1]; 72 mg/kg/d subcutaneously in six divided doses every 2 h, n = 3): 0 (SQS 0 = no significant change (overall score, <1)) | SQS score [1, 4]: 0 (SQS 0 = no significant change (overall score, <1)) | mice with the SQS score [1, 4]: 3/3 | Kidney histopathology, mice with the SQS score ([1]; mouse, in vivo): 3/3 | Kidney histological damage, mice with the given grade ([1]; mouse, in vivo, ip, 120 mg/kg/day): 6/6 | Kidney damage ([1]; mouse, in vivo, ip, 150 mg/kg): no significant damage to the kidneys | logFC (Differential gene expression for all genes), Geneid ABUW_RS00005 ([2]; H vs Cont, 1h): 0.01563 | logFC (Differential gene expression for all genes), Geneid ABUW_RS00020 ([2]; H vs Cont, 1h): 0.4229 | logFC (Fold change), gene ABUW_RS00010 ([2]; H vs Cont, 1h): 0.4611 | logFC (Fold change), gene ABUW_RS00030 ([2]; H vs Cont, 1h): -0.6384 | logFC (Fold change), gene ABUW_RS00035 ([2]; H vs Cont, 1h): 1.28 | logFC (Fold change), gene recF (ABUW_RS00015) ([2]; H vs Cont, 1h): -0.2583 | log2FC, gene ABUW_RS01945 (acyl-CoA thioesterase II) ([2]; H vs Cont, 1h): 0.05276 | log2FC, gene ABUW_RS02545 (acyl-CoA thioesterase) ([2]; H vs Cont, 1h): 1.462 | log2FC, gene ABUW_RS05045 (acyl-CoA thioesterase) ([2]; H vs Cont, 1h): 0.342 | log2FC, gene ABUW_RS17575 (acyl-CoA thioesterase) ([2]; H vs Cont, 1h): -0.4502 | logFC (Differential gene expression for all genes), Geneid ABUW_RS00005 ([2]; H vs Cont, 4h): -0.1188 | logFC (Differential gene expression for all genes), Geneid ABUW_RS00020 ([2]; H vs Cont, 4h): 0.1404 | logFC (Fold change), gene ABUW_RS00010 ([2]; H vs Cont, 4h): 1.271 | logFC (Fold change), gene ABUW_RS00030 ([2]; H vs Cont, 4h): -1.908 | logFC (Fold change), gene ABUW_RS00035 ([2]; H vs Cont, 4h): 1.362 | logFC (Fold change), gene recF (ABUW_RS00015) ([2]; H vs Cont, 4h): -0.8325 | log2FC, gene ABUW_RS01945 (acyl-CoA thioesterase II) ([2]; H vs Cont, 4h): -0.9573 | log2FC, gene ABUW_RS02545 (acyl-CoA thioesterase) ([2]; H vs Cont, 4h): 1.303 | log2FC, gene ABUW_RS05045 (acyl-CoA thioesterase) ([2]; H vs Cont, 4h): 0.7194 | log2FC, gene ABUW_RS17575 (acyl-CoA thioesterase) ([2]; H vs Cont, 4h): -2.7329 | 4h_1h logFC (Differential gene expression for all genes), Geneid ABUW_RS00005 ([2]; H): -0.4851 | 4h_1h logFC (Differential gene expression for all genes), Geneid ABUW_RS00010 ([2]; H): 0.8595 | 4h_1h logFC (Differential gene expression for all genes), Geneid ABUW_RS00015 ([2]; H): -1.098 | 4h_1h logFC (Differential gene expression for all genes), Geneid ABUW_RS00020 ([2]; H): 0.6821 | logFC (Differential gene expression for all genes), Geneid ABUW_RS00005 ([2]; L vs Cont, 1h): 0.07464 | logFC (Differential gene expression for all genes), Geneid ABUW_RS00020 ([2]; L vs Cont, 1h): -0.04639 | logFC (Fold change), gene ABUW_RS00010 ([2]; L vs Cont, 1h): 0.04206 | logFC (Fold change), gene ABUW_RS00030 ([2]; L vs Cont, 1h): 0.5072 | logFC (Fold change), gene ABUW_RS00035 ([2]; L vs Cont, 1h): -0.01907 | logFC (Fold change), gene recF (ABUW_RS00015) ([2]; L vs Cont, 1h): 0.05956 | log2FC, gene ABUW_RS01945 (acyl-CoA thioesterase II) ([2]; L vs Cont, 1h): 0.4901 | log2FC, gene ABUW_RS02545 (acyl-CoA thioesterase) ([2]; L vs Cont, 1h): -0.0862 | log2FC, gene ABUW_RS05045 (acyl-CoA thioesterase) ([2]; L vs Cont, 1h): -0.2681 | log2FC, gene ABUW_RS17575 (acyl-CoA thioesterase) ([2]; L vs Cont, 1h): -0.08172 | logFC (Differential gene expression for all genes), Geneid ABUW_RS00005 ([2]; L vs Cont, 4h): 0.1571 | logFC (Differential gene expression for all genes), Geneid ABUW_RS00020 ([2]; L vs Cont, 4h): -0.1135 | logFC (Fold change), gene ABUW_RS00010 ([2]; L vs Cont, 4h): 0.2996 | logFC (Fold change), gene ABUW_RS00030 ([2]; L vs Cont, 4h): 0.4017 | logFC (Fold change), gene ABUW_RS00035 ([2]; L vs Cont, 4h): 0.1258 | logFC (Fold change), gene recF (ABUW_RS00015) ([2]; L vs Cont, 4h): -0.3068 | log2FC, gene ABUW_RS01945 (acyl-CoA thioesterase II) ([2]; L vs Cont, 4h): -0.2225 | log2FC, gene ABUW_RS02545 (acyl-CoA thioesterase) ([2]; L vs Cont, 4h): -0.9002 | log2FC, gene ABUW_RS05045 (acyl-CoA thioesterase) ([2]; L vs Cont, 4h): 0.02763 | log2FC, gene ABUW_RS17575 (acyl-CoA thioesterase) ([2]; L vs Cont, 4h): -0.0188 | 4h_1h logFC (Differential gene expression for all genes), Geneid ABUW_RS00005 ([2]; L): -0.03686 | 4h_1h logFC (Differential gene expression for all genes), Geneid ABUW_RS00010 ([2]; L): -0.6141 | 4h_1h logFC (Differential gene expression for all genes), Geneid ABUW_RS00015 ([2]; L): -0.239 | 4h_1h logFC (Differential gene expression for all genes), Geneid ABUW_RS00020 ([2]; L): -0.06215 | Log10 CFU/mL blood at 4 h, Mean ([3]; 4 h): 4.36 Log10 CFU/mL blood | Δlog10 CFU/mL blood (mean) ([3]; 4 h, treated minus control, mean of replicates, 4 mg/kg): −3.44 log10 CFU/mL blood | Log10 CFU/mL blood at 4 h, single mouse ([3]; 4 h, 4 mg/kg): 5.03 Log10 CFU/mL blood and 4.95 Log10 CFU/mL blood and 3.10 Log10 CFU/mL blood | Delta Log10 CFU/mL blood at 4 h, single mouse ([3]; treated mouse minus mean of vehicle mice, 4 mg/kg): -2.77 Log10 CFU/mL blood and -2.85 Log10 CFU/mL blood and -4.70 Log10 CFU/mL blood
